Reference: patent US8969516B2, “Method of hydrolysis of peptide bond” (priority 2006, dated 2015)

Experiment: MALDI-TOF screening of Ni^2+ dependent hydrolysis in a combinatorial peptide library
Type: physicochemical
Conditions: Ni^2+ 2 mM, pH 8.2, 10 mM Tris, score=24/tm
In short: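 MALDI-TOF spectra taken at 2, 4, 6 and 8 h tracked the appearance of Ser/Thr-X-His-Z-Lys-Phe-Leu-NH2 cleavage products and the fall in substrate signals. Reactions: 1 mM peptide mixture, 2 mM Ni^2+, 10 mM Tris pH 8.2, at 37 or 45 °C; X/Z substitutions ranked by summed scores.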

[1] = CH3CO-Gly-Ala-Ser-X-His-Z-Lys-Phe-Leu-NH2 library, 37° C.
[2] = CH3CO-Gly-Ala-Ser-X-His-Z-Lys-Phe-Leu-NH2 library, 45° C.
[3] = CH3CO-Gly-Ala-Thr-X-His-Z-Lys-Phe-Leu-NH2 library, 37° C.
[4] = CH3CO-Gly-Ala-Thr-X-His-Z-Lys-Phe-Leu-NH2 library, 45° C.

Row | Substance | hydrolysis score from MALDI-TOF screening [1] | hydrolysis score from MALDI-TOF screening [2] | hydrolysis score from MALDI-TOF screening [3] | hydrolysis score from MALDI-TOF screening [4]
1 | Ac-GASQHQKFL-NH2 [SQHQ] | 0 (a score of 0 if no trace of the product of hydrolysis was seen after 8 hours of incubation) | 0 (a score of 0 if no trace of the product of hydrolysis was seen after 8 hours of incubation) |  | 
2 | Ac-GATQHRKFL-NH2 [TQHR] |  |  | 3 (a score of 3 for detection at 8 hours) | 4 (a score of 4 for detection at 6 hours)
3 | Ac-GASHHQKFL-NH2 [SHHQ] | 0 (a score of 0 if no trace of the product of hydrolysis was seen after 8 hours of incubation) | 0 (a score of 0 if no trace of the product of hydrolysis was seen after 8 hours of incubation) |  | 
4 | Ac-GATQHAKFL-NH2 [TQHA] |  |  | 0 (a score of 0 if no trace of the product of hydrolysis was seen after 8 hours of incubation) | 0 (a score of 0 if no trace of the product of hydrolysis was seen after 8 hours of incubation)
5 | Ac-GATPHQKFL-NH2 [TPHQ] |  |  |  | 0 (a score of 0 if no trace of the product of hydrolysis was seen after 8 hours of incubation)
6 | Ac-GATHHMKFL-NH2 [THHM] |  |  | 0 (a score of 0 if no trace of the product of hydrolysis was seen after 8 hours of incubation) | 4 (a score of 4 for detection at 6 hours)
7 | Ac-GATNHVKFL-NH2 [TNHV] |  |  | 0 (a score of 0 if no trace of the product of hydrolysis was seen after 8 hours of incubation) | 0 (a score of 0 if no trace of the product of hydrolysis was seen after 8 hours of incubation)
8 | Ac-GATQHPKFL-NH2 [TQHP] |  |  | 0 (a score of 0 if no trace of the product of hydrolysis was seen after 8 hours of incubation) | 0 (a score of 0 if no trace of the product of hydrolysis was seen after 8 hours of incubation)
9 | Ac-GASKHWKFL-NH2 [SKHW] | 12 (a score of 12, if it was seen to be partially hydrolysed at 2 hours) | 12 (a score of 12, if it was seen to be partially hydrolysed at 2 hours) |  | 
10 | Ac-GATFHYKFL-NH2 [TFHY] |  |  | 0 (a score of 0 if no trace of the product of hydrolysis was seen after 8 hours of incubation) | 0 (a score of 0 if no trace of the product of hydrolysis was seen after 8 hours of incubation)
11 | Ac-GASVHYKFL-NH2 [SVHY] | 0 (a score of 0 if no trace of the product of hydrolysis was seen after 8 hours of incubation) | 3 (a score of 3 for detection at 8 hours) |  | 
12 | Ac-GATHHTKFL-NH2 [THHT] |  |  | 0 (a score of 0 if no trace of the product of hydrolysis was seen after 8 hours of incubation) | 4 (a score of 4 for detection at 6 hours)
13 | Ac-GASWHHKFL-NH2 [SWHH] | 4 (a score of 4 for detection at 6 hours) | 3 (a score of 3 for detection at 8 hours) |  | 
14 | Ac-GATGHLKFL-NH2 [TGHL] |  |  | 0 (a score of 0 if no trace of the product of hydrolysis was seen after 8 hours of incubation) | 0 (a score of 0 if no trace of the product of hydrolysis was seen after 8 hours of incubation)
15 | Ac-GATSHVKFL-NH2 [TSHV] |  |  | 0 (a score of 0 if no trace of the product of hydrolysis was seen after 8 hours of incubation) | 0 (a score of 0 if no trace of the product of hydrolysis was seen after 8 hours of incubation)
16 | Ac-GASRHHKFL-NH2 [SRHH] | 4 (a score of 4 for detection at 6 hours) | 4 (a score of 4 for detection at 6 hours) |  | 
17 | Ac-GATRHGKFL-NH2 [TRHG] |  |  | 0 (a score of 0 if no trace of the product of hydrolysis was seen after 8 hours of incubation) | 0 (a score of 0 if no trace of the product of hydrolysis was seen after 8 hours of incubation)
18 | Ac-GATQHYKFL-NH2 [TQHY] |  |  | 0 (a score of 0 if no trace of the product of hydrolysis was seen after 8 hours of incubation) | 0 (a score of 0 if no trace of the product of hydrolysis was seen after 8 hours of incubation)
19 | Ac-GATQHMKFL-NH2 [TQHM] |  |  | 0 (a score of 0 if no trace of the product of hydrolysis was seen after 8 hours of incubation) | 0 (a score of 0 if no trace of the product of hydrolysis was seen after 8 hours of incubation)
20 | Ac-GASGHTKFL-NH2 [SGHT] | 0 (a score of 0 if no trace of the product of hydrolysis was seen after 8 hours of incubation) | 0 (a score of 0 if no trace of the product of hydrolysis was seen after 8 hours of incubation) |  | 

Row | Substance | hydrolysis score from MALDI-TOF screening [1] | hydrolysis score from MALDI-TOF screening [2] | hydrolysis score from MALDI-TOF screening [3] | hydrolysis score from MALDI-TOF screening [4]
21 | Ac-GASPHKKFL-NH2 [SPHK] | 0 (a score of 0 if no trace of the product of hydrolysis was seen after 8 hours of incubation) | 0 (a score of 0 if no trace of the product of hydrolysis was seen after 8 hours of incubation) |  | 
22 | Ac-GASMHRKFL-NH2 [SMHR] | 4 (a score of 4 for detection at 6 hours) | 6 (a score of 6 for detection at 4 hours) |  | 
23 | Ac-GASSHDKFL-NH2 [SSHD] | 0 (a score of 0 if no trace of the product of hydrolysis was seen after 8 hours of incubation) | 3 (a score of 3 for detection at 8 hours) |  | 
24 | Ac-GATGHEKFL-NH2 [TGHE] |  |  | 0 (a score of 0 if no trace of the product of hydrolysis was seen after 8 hours of incubation) | 0 (a score of 0 if no trace of the product of hydrolysis was seen after 8 hours of incubation)
25 | Ac-GASIHTKFL-NH2 [SIHT] | 0 (a score of 0 if no trace of the product of hydrolysis was seen after 8 hours of incubation) | 0 (a score of 0 if no trace of the product of hydrolysis was seen after 8 hours of incubation) |  | 
26 | Ac-GASKHGKFL-NH2 [SKHG] | 0 (a score of 0 if no trace of the product of hydrolysis was seen after 8 hours of incubation) | 0 (a score of 0 if no trace of the product of hydrolysis was seen after 8 hours of incubation) |  | 
27 | Ac-GASWHQKFL-NH2 [SWHQ] | 0 (a score of 0 if no trace of the product of hydrolysis was seen after 8 hours of incubation) | 0 (a score of 0 if no trace of the product of hydrolysis was seen after 8 hours of incubation) |  | 
28 | Ac-GASLHEKFL-NH2 [SLHE] | 0 (a score of 0 if no trace of the product of hydrolysis was seen after 8 hours of incubation) | 0 (a score of 0 if no trace of the product of hydrolysis was seen after 8 hours of incubation) |  | 
29 | Ac-GASGHWKFL-NH2 [SGHW] | 3 (a score of 3 for detection at 8 hours) | 4 (a score of 4 for detection at 6 hours) |  | 
30 | Ac-GATKHRKFL-NH2 [TKHR] |  |  | 4 (a score of 4 for detection at 6 hours) | 12 (a score of 12, if it was seen to be partially hydrolysed at 2 hours)
31 | Ac-GASGHDKFL-NH2 [SGHD] | 0 (a score of 0 if no trace of the product of hydrolysis was seen after 8 hours of incubation) | 0 (a score of 0 if no trace of the product of hydrolysis was seen after 8 hours of incubation) |  | 
32 | Ac-GASRHMKFL-NH2 [SRHM] | 3 (a score of 3 for detection at 8 hours) | 3 (a score of 3 for detection at 8 hours) |  | 
33 | Ac-GASQHWKFL-NH2 [SQHW] | 6 (a score of 6 for detection at 4 hours) | 6 (a score of 6 for detection at 4 hours) |  | 
34 | Ac-GATYHMKFL-NH2 [TYHM] |  |  | 0 (a score of 0 if no trace of the product of hydrolysis was seen after 8 hours of incubation) | 0 (a score of 0 if no trace of the product of hydrolysis was seen after 8 hours of incubation)
35 | Ac-GASHHIKFL-NH2 [SHHI] | 6 (a score of 6 for detection at 4 hours) | 6 (a score of 6 for detection at 4 hours) |  | 
36 | Ac-GASSHFKFL-NH2 [SSHF] | 3 (a score of 3 for detection at 8 hours) | 3 (a score of 3 for detection at 8 hours) |  | 
37 | Ac-GASTHLKFL-NH2 [STHL] | 4 (a score of 4 for detection at 6 hours) | 6 (a score of 6 for detection at 4 hours) |  | 
38 | Ac-GASHHWKFL-NH2 [SHHW] | 6 (a score of 6 for detection at 4 hours) | 12 (a score of 12, if it was seen to be partially hydrolysed at 2 hours) |  | 
39 | Ac-GASMHWKFL-NH2 [SMHW] | 4 (a score of 4 for detection at 6 hours) | 6 (a score of 6 for detection at 4 hours) |  | 
40 | Ac-GASYHAKFL-NH2 [SYHA] | 0 (a score of 0 if no trace of the product of hydrolysis was seen after 8 hours of incubation) | 0 (a score of 0 if no trace of the product of hydrolysis was seen after 8 hours of incubation) |  | 
